Legend:
Conditions in all cases: 72 h
[1] = tested on: MV4-11
How it was run: (§1)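 The IC50 was derived from log-logistic dose–response fitting. Each of fifteen myeloid leukaemia cell lines, seeded in RPMI 1640 within its linear growth range, was exposed in 384-well plates to five tenfold doses (1 to 10,000 nM) in duplicate for 72 h at 37 °C and 5% CO2. Luminescent ATP viability readings were normalised to vehicle and to a positive control at 10 µM before four-parameter curve fitting.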

[2] = tested on: LAMA-84
How it was run: as §1

[3] = tested on: KU-812
How it was run: as §1

[4] = tested on: KCL-22
How it was run: as §1

[5] = tested on: HEL
How it was run: as §1

[6] = tested on: SHI-1
How it was run: as §1

[7] = tested on: Mono-Mac-6
How it was run: as §1

[8] = tested on: MOLM-13
How it was run: as §1

[9] = tested on: ML-2
How it was run: as §1

[10] = tested on: K-562
How it was run: as §1

[11] = tested on: THP-1
How it was run: as §1

[12] = tested on: KG-1
How it was run: as §1

[13] = tested on: NOMO-1
How it was run: as §1

[14] = tested on: HL-60
How it was run: as §1

[15] = tested on: BV-173
How it was run: as §1

[16] = tested on: HL-60; experiment: area under dose-response curve (viability, 1 nM-10 uM) (fraction (0-1)); higher = more sensitive
How it was run: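 For each screen, HL-60 cells in RPMI 1640 with 10% FBS carried either DMSO or 100 nM of one of three metabolic inhibitors while the full library was applied at five tenfold concentrations, 1–10,000 nM, in duplicate. Plates were 384-well and were kept 72 h at 37 °C, 5% CO2. Viability, measured by CellTiter-Glo, was normalised to wells with DMSO and with 10 μM proteasome inhibitor. Where area under the curve appears, it was fitted by four-parameter log-logistic models in drc and PharmacoGx.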

[17] = tested on: LAMA-84; experiment: cell viability (% survival relative to DMSO control, bortezomib = 0%); higher = less cytotoxic
How it was run: (§2)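 Reported values are percent survival from duplicate wells, averaged. Fifteen myeloid leukaemia cell lines were treated in 384-well plates with compounds at 1, 10, 100, 1000 or 10000 nM for 72 h at 37 °C in 5% CO2. Signals from CellTiter-Glo luminescence were scaled with vehicle as 100% and a 10 µM positive control as 0%.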

[18] = tested on: KU-812; experiment: as above
How it was run: as §2

[19] = tested on: KCL-22; experiment: as above
How it was run: as §2

[20] = tested on: HEL; experiment: as above
How it was run: as §2

[21] = tested on: SHI-1; experiment: as above
How it was run: as §2

[22] = tested on: Mono-Mac-6; experiment: as above
How it was run: as §2

[23] = tested on: MOLM-13; experiment: as above
How it was run: as §2

[24] = tested on: ML-2; experiment: as above
How it was run: as §2

[25] = tested on: K-562; experiment: as above
How it was run: as §2

[26] = tested on: THP-1; experiment: as above
How it was run: as §2

[27] = tested on: KG-1; experiment: as above
How it was run: as §2

[28] = tested on: NOMO-1; experiment: as above
How it was run: as §2

[29] = tested on: HL-60; experiment: as above
How it was run: as §2

[30] = tested on: BV-173; experiment: as above
How it was run: as §2

CC[C@H](C)C(=O)O[C@H]1C[C@@H](C)C=C2C=C[C@H](C)[C@H](CC[C@@H]3C[C@@H](O)CC(=O)O3)[C@H]21 [Lovastatin]
Conditions | IC50 (cell viability) [µM]
[1] | > 10
[2] | > 10
[3] | > 10
[4] | > 10
[5] | > 10
[6] | > 10
[7] | > 10
[8] | > 10
[9] | > 10
[10] | > 10
[11] | > 10
[12] | > 10
[13] | > 10
[14] | > 10
[15] | > 10

Conditions | area under dose-response curve, co-treatment: AZD3965 100 nM | area under dose-response curve, co-treatment: DMSO vehicle | area under dose-response curve, co-treatment: GSK2194069 100 nM | area under dose-response curve, co-treatment: pictilisib 100 nM | cell viability, 1 nM [%] | cell viability, 10 nM [%] | cell viability, 100 nM [%] | cell viability, 1000 nM [%] | cell viability, 10000 nM [%]
[16] | < 0.0301 | < 0.0301 | < 0.0301 | 0.0554 | – | – | – | – | –
[17] | – | – | – | – | 88.8 | 103 | 104 | 92.3 | 90.9
[18] | – | – | – | – | 102 | 96.4 | 94 | 87.2 | 84
[19] | – | – | – | – | 93.6 | 67.8 | 114 | 98.8 | 95.4
[20] | – | – | – | – | 101 | 87.8 | 114 | 92.6 | 86.3
[21] | – | – | – | – | 97.5 | 97.6 | 104 | 93.8 | 92.5
[22] | – | – | – | – | 97.4 | 101 | 95.7 | 96.8 | 92.2
[23] | – | – | – | – | 86.4 | 85.7 | 83.8 | 87.4 | 74.7
[24] | – | – | – | – | 108 | 105 | 111 | 104 | 102
[25] | – | – | – | – | 108 | 98.9 | 101 | 99.3 | 88.4
[26] | – | – | – | – | 98.1 | 88.8 | 100 | 97.3 | 98.6
[27] | – | – | – | – | 98.7 | 93.3 | 107 | 96.3 | 90.2
[28] | – | – | – | – | 101 | 91.9 | 97.2 | 93.6 | 90.7
[29] | – | – | – | – | 96.8 | 113 | 101 | 101 | 102
[30] | – | – | – | – | 109 | 94.6 | 95.3 | 98.7 | 79.1

O=C(O)Cn1nnc(-c2cc(N3CCC(Oc4cc(F)ccc4Br)CC3)no2)n1 [MK-8245]
Conditions | IC50 (cell viability) [µM]
[1] | > 10
[2] | > 10
[3] | > 10
[4] | > 10
[5] | > 10
[6] | > 10
[7] | > 10
[8] | 0.643
[9] | > 10
[10] | 6.81
[11] | > 10
[12] | > 10
[13] | > 10
[14] | > 10
[15] | > 10

Conditions | area under dose-response curve, co-treatment: AZD3965 100 nM | area under dose-response curve, co-treatment: DMSO vehicle | area under dose-response curve, co-treatment: GSK2194069 100 nM | area under dose-response curve, co-treatment: pictilisib 100 nM | cell viability, 1 nM [%] | cell viability, 10 nM [%] | cell viability, 100 nM [%] | cell viability, 1000 nM [%] | cell viability, 10000 nM [%]
[16] | < 0.0301 | < 0.0301 | < 0.0301 | < 0.0301 | – | – | – | – | –
[17] | – | – | – | – | 99.6 | 109 | 95.1 | 95.5 | 91.6
[18] | – | – | – | – | 99 | 107 | 93.4 | 88.2 | 94.7
[19] | – | – | – | – | 105 | 118 | 95.5 | 97.7 | 60.1
[20] | – | – | – | – | 108 | 115 | 75.6 | 92.7 | 91.2
[21] | – | – | – | – | 99 | 119 | 103 | 97.8 | 90.8
[22] | – | – | – | – | 91.1 | 90.8 | 94.2 | 94.6 | 88
[23] | – | – | – | – | 104 | 131 | 86.1 | 48.2 | 35.8
[24] | – | – | – | – | 109 | 111 | 102 | 105 | 96.7
[25] | – | – | – | – | 97.7 | 122 | 90.5 | 88.2 | 41.2
[26] | – | – | – | – | 95.3 | 96.1 | 102 | 99 | 89.2
[27] | – | – | – | – | 105 | 117 | 108 | 102 | 112
[28] | – | – | – | – | 95.8 | 103 | 96.9 | 96.9 | 90
[29] | – | – | – | – | 105 | 93.2 | 108 | 50.7 | 94.3
[30] | – | – | – | – | 88.1 | 105 | 91.2 | 88.6 | 87.3

C[C@](N)(Cc1ccc(O)cc1)C(=O)O [Metirosine]
Conditions | IC50 (cell viability) [µM]
[1] | > 10
[2] | > 10
[3] | > 10
[4] | > 10
[5] | > 10
[6] | > 10
[7] | > 10
[8] | > 10
[9] | > 10
[10] | > 10
[11] | > 10
[12] | > 10
[13] | > 10
[14] | > 10
[15] | > 10

Conditions | area under dose-response curve, co-treatment: AZD3965 100 nM | area under dose-response curve, co-treatment: DMSO vehicle | area under dose-response curve, co-treatment: GSK2194069 100 nM | area under dose-response curve, co-treatment: pictilisib 100 nM | cell viability, 1 nM [%] | cell viability, 10 nM [%] | cell viability, 100 nM [%] | cell viability, 1000 nM [%] | cell viability, 10000 nM [%]
[16] | < 0.0301 | < 0.0301 | < 0.0301 | < 0.0301 | – | – | – | – | –
[17] | – | – | – | – | 102 | 108 | 107 | 105 | 99.2
[18] | – | – | – | – | 89.4 | 91.1 | 102 | 91.9 | 96.5
[19] | – | – | – | – | 107 | 95.1 | 96.9 | 91.8 | 99.7
[20] | – | – | – | – | 101 | 92.6 | 99.6 | 94.7 | 108
[21] | – | – | – | – | 103 | 105 | 101 | 101 | 91.4
[22] | – | – | – | – | 99.2 | 101 | 107 | 92.9 | 104
[23] | – | – | – | – | 94.4 | 81.5 | 82.9 | 94.6 | 95.7
[24] | – | – | – | – | 91.1 | 96.7 | 107 | 97.9 | 93.5
[25] | – | – | – | – | 113 | 90.2 | 101 | 107 | 103
[26] | – | – | – | – | 98.3 | 99.5 | 105 | 94.3 | 101
[27] | – | – | – | – | 105 | 93.9 | 94.7 | 89.3 | 107
[28] | – | – | – | – | 95 | 96.6 | 103 | 93.6 | 102
[29] | – | – | – | – | 99.2 | 93.7 | 89.7 | 97.6 | 107
[30] | – | – | – | – | 98.4 | 89.1 | 115 | 86 | 114
